Experimental data reported in patent US9957264B2 (Merck Sharp & Dohme Corp., priority 2013, dated 2018).

How the values were obtained:
[1] = biological target: JAK1 (recombinant purified GST-tagged catalytic domain) (Homo sapiens (Human), UniProt P23458); test: Jak Biochemical HTRF Assay (JAK1); details: [ATP] 31.8 μM
Procedure, shortened: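 Read-out is the 665/615 nm time-resolved FRET ratio from Eu-pY20 antibody and streptavidin-Dylight 650 bound to phosphorylated biotin-peptide. Reactions ran 120 min at room temperature after ATP start. Inhibition normalized to untreated controls gave IC50 via 4-parameter fit.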

[2] = biological target: JAK2 (recombinant purified GST-tagged catalytic domain) (Homo sapiens (Human), UniProt O60674); test: Jak Biochemical HTRF Assay (JAK2); details: [ATP] 8.5 μM
JAK2 (recombinant purified GST-tagged catalytic domain), sequence (O60674 849-1124): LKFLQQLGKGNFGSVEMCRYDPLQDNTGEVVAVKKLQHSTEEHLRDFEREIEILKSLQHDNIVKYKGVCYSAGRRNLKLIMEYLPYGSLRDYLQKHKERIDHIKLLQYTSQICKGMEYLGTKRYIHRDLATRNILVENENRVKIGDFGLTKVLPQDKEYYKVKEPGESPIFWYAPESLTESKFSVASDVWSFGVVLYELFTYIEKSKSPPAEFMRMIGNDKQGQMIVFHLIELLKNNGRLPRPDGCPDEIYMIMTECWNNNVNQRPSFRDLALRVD

JAK1 (recombinant purified GST-tagged catalytic domain), sequence (P23458 875-1153): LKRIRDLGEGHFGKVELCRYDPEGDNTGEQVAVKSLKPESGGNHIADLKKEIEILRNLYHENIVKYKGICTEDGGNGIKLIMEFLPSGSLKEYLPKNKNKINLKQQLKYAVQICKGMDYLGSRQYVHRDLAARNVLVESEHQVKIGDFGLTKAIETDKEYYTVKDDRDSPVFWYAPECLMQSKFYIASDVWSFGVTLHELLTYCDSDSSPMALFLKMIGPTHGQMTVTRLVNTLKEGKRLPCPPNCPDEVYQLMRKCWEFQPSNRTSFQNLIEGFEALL

IC50 [1] [nM]	IC50 [2] [nM]	Compound
0.73	2.84	CN(C)S(=O)(=O)c1ccc(Nc2nn(C3(CC#N)CCN(Cc4ccc(N5CCCC5=O)cc4)CC3)c3cc[nH]c(=O)c23)cc1 [Example 8-14, 4-[(1-{4-(cyanomethyl)-1-[4-(2-oxopyrrolidin-1-yl)benzyl]piperidin-4-yl}-4-oxo-4,5-dihydro-1H-pyrazolo[4,3-c]pyridin-3-yl)amino]-N,N-dimethylbenzenesulfonamide]
1.4	3.26	CC(c1c(F)cccc1F)N1CCC(CC#N)(n2nc(Nc3ccc(S(=O)(=O)N(C)C)cc3)c3c(=O)[nH]ccc32)CC1 (stereo not shown) [Example 8-17, 4-((1-(4-(cyanomethyl)-1-(1-(2,6-difluorophenyl)ethyl)piperidin-4-yl)-4-oxo-4,5-dihydro-1H-pyrazolo[4,3-c]pyridin-3-yl)amino)-N,N-dimethylbenzenesulfonamide]
0.24	1.63	COCC(=O)N1CCC(CC#N)(n2nc(Nc3ccc(S(=O)(=O)N(C)C)cc3)c3c(=O)[nH]ccc32)CC1 [Example 9-3, 4-({1-[4-(cyanomethyl)-1-(methoxyacetyl)piperidin-4-yl]-4-oxo-4,5-dihydro-1H-pyrazolo[4,3-c]pyridin-3-yl}amino)-N,N-dimethylbenzenesulfonamide]
0.09	0.51	CN(C)S(=O)(=O)c1ccc(Nc2nn(C3(CC#N)CCN(C(=O)C4CC(F)(F)C4)CC3)c3cc[nH]c(=O)c23)cc1 [Example 9-7, 4-[(1-{4-(cyanomethyl)-1-[(3,3-difluorocyclobutyl)carbonyl]piperidin-4-yl}-4-oxo-4,5-dihydro-1H-pyrazolo[4,3-c]pyridin-3-yl)amino]-N,N-dimethylbenzenesulfonamide]
0.16	1.21	CN(C)S(=O)(=O)c1ccc(Nc2nn(C3(CC#N)CCN(C(=O)C4CCCCC4)CC3)c3cc[nH]c(=O)c23)cc1 [Example 9-8, 4-({1-[4-(cyanomethyl)-1-(cyclohexylcarbonyl)piperidin-4-yl]-4-oxo-4,5-dihydro-1H-pyrazolo[4,3-c]pyridin-3-yl}amino)-N,N-dimethylbenzenesulfonamide]
3.96	38.8	CN(C)S(=O)(=O)c1ccc(Nc2nn(C3(CC#N)CCN(C(=O)C45CC6C[C@H](C4)C[C@@H](C6)C5)CC3)c3cc[nH]c(=O)c23)cc1 [Example 9-9, 4-[(1-{4-(cyanomethyl)-1-[(3S,5S,7S)-tricyclo[3.3.1.1^3,7]dec-1-ylcarbonyl]piperidin-4-yl}-4-oxo-4,5-dihydro-1H-pyrazolo[4,3-c]pyridin-3-yl)amino]-N,N-dimethylbenzenesulfonamide]
0.14	0.39	CN(C)S(=O)(=O)c1ccc(Nc2nn(C3(CC#N)CCN(C(=O)C4Cc5ccccc5C4)CC3)c3cc[nH]c(=O)c23)cc1 [Example 9-18, 4-({1-[4-(cyanomethyl)-1-(2,3-dihydro-1H-inden-2-ylcarbonyl)piperidin-4-yl]-4-oxo-4,5-dihydro-1H-pyrazolo[4,3-c]pyridin-3-yl}amino)-N,N-dimethylbenzenesulfonamide]

Further lines, the compound ahead of its results:

Compound	IC50 [1] [nM]	IC50 [2] [nM]
CN(C)S(=O)(=O)c1ccc(Nc2nn(C3(CC#N)CCN(Cc4ccc(-c5ccon5)cc4)CC3)c3cc[nH]c(=O)c23)cc1 [Example 8-13, 4-({1-[4-(cyanomethyl)-1-(4-isoxazol-3-ylbenzyl)piperidin-4-yl]-4-oxo-4,5-dihydro-1H-pyrazolo[4,3-c]pyridin-3-yl}amino)-N,N-dimethylbenzenesulfonamide]	0.31	0.75
CN(C)S(=O)(=O)c1ccc(Nc2nn(C3(CC#N)CCN(CCCc4ccccc4)CC3)c3cc[nH]c(=O)c23)cc1 [Example 8-15, 4-({1-[4-(cyanomethyl)-1-(3-phenylpropyl)piperidin-4-yl]-4-oxo-4,5-dihydro-1H-pyrazolo[4,3-c]pyridin-3-yl}amino)-N,N-dimethylbenzenesulfonamide]	0.53	2.84
CN(C)S(=O)(=O)c1ccc(Nc2nn(C3(CC#N)CCN(CCc4ccccc4)CC3)c3cc[nH]c(=O)c23)cc1 [Example 8-18, 4-((1-(4-(cyanomethyl)-1-phenethylpiperidin-4-yl)-4-oxo-4,5-dihydro-1H-pyrazolo[4,3-c]pyridin-3-yl)amino)-N,N-dimethylbenzenesulfonamide]	3.16	14
CN(C)S(=O)(=O)c1cccc(Nc2nn(C3(CC#N)CCN(Cc4cccnc4)CC3)c3cc[nH]c(=O)c23)c1 [Example 8-19, 3-({1-[4-(cyanomethyl)-1-(pyridin-3-ylmethyl)piperidin-4-yl]-4-oxo-4,5-dihydro-1H-pyrazolo[4,3-c]pyridin-3-yl}amino)-N,N-dimethylbenzenesulfonamide]	1.19	1.98
CN(C)S(=O)(=O)c1ccc(Nc2nn(C3(CC#N)CCN(C(=O)CC(F)(F)F)CC3)c3cc[nH]c(=O)c23)cc1 [Example 9-2, 4-({1-[4-(cyanomethyl)-1-(3,3,3-trifluoropropanoyl)piperidin-4-yl]-4-oxo-4,5-dihydro-1H-pyrazolo[4,3-c]pyridin-3-yl}amino)-N,N-dimethylbenzenesulfonamide]	0.08	0.31
CN(C)CC(=O)N1CCC(CC#N)(n2nc(Nc3ccc(S(=O)(=O)N(C)C)cc3)c3c(=O)[nH]ccc32)CC1 [Example 9-4, 4-({1-[4-(cyanomethyl)-1-(N,N-dimethylglycyl)piperidin-4-yl]-4-oxo-4,5-dihydro-1H-pyrazolo[4,3-c]pyridin-3-yl}amino)-N,N-dimethylbenzenesulfonamide]	0.65	5.17
CN(C)S(=O)(=O)c1ccc(Nc2nn(C3(CC#N)CCN(C(=O)C(C)(C)C)CC3)c3cc[nH]c(=O)c23)cc1 [Example 9-5, 4-({1-[4-(cyanomethyl)-1-(2,2-dimethylpropanoyl)piperidin-4-yl]-4-oxo-4,5-dihydro-1H-pyrazolo[4,3-c]pyridin-3-yl}amino)-N,N-dimethylbenzenesulfonamide]	0.55	3.05
CN(C)S(=O)(=O)c1ccc(Nc2nn(C3(CC#N)CCN(C(=O)C4CC4)CC3)c3cc[nH]c(=O)c23)cc1 [Example 9-6, 4-({1-[4-(cyanomethyl)-1-(cyclopropylcarbonyl)piperidin-4-yl]-4-oxo-4,5-dihydro-1H-pyrazolo[4,3-c]pyridin-3-yl}amino)-N,N-dimethylbenzenesulfonamide]	0.08	0.29
CN(C)S(=O)(=O)c1ccc(Nc2nn(C3(CC#N)CCN(C(=O)CC4CC4)CC3)c3cc[nH]c(=O)c23)cc1 [Example 9-10, 4-({1-[4-(cyanomethyl)-1-(cyclopropylacetyl)piperidin-4-yl]-4-oxo-4,5-dihydro-1H-pyrazolo[4,3-c]pyridin-3-yl}amino)-N,N-dimethylbenzenesulfonamide]	0.17	1.07
CN(C)S(=O)(=O)c1ccc(Nc2nn(C3(CC#N)CCN(C(=O)CCC4CC4)CC3)c3cc[nH]c(=O)c23)cc1 [Example 9-11, 4-({1-[4-(cyanomethyl)-1-(3-cyclopropylpropanoyl)piperidin-4-yl]-4-oxo-4,5-dihydro-1H-pyrazolo[4,3-c]pyridin-3-yl}amino)-N,N-dimethylbenzenesulfonamide]	0.14	1.15
CN(C)S(=O)(=O)c1ccc(Nc2nn(C3(CC#N)CCN(C(=O)c4ccccc4)CC3)c3cc[nH]c(=O)c23)cc1 [Example 9-12, 4-({1-[4-(cyanomethyl)-1-(phenylcarbonyl)piperidin-4-yl]-4-oxo-4,5-dihydro-1H-pyrazolo[4,3-c]pyridin-3-yl}amino)-N,N-dimethylbenzenesulfonamide]	1.69	16.8
CN(C)S(=O)(=O)c1ccc(Nc2nn(C3(CC#N)CCN(C(=O)c4ccc(Cl)cc4)CC3)c3cc[nH]c(=O)c23)cc1 [Example 9-13, 4-[(1-{1-[(4-chlorophenyl)carbonyl]-4-(cyanomethyl)piperidin-4-yl}-4-oxo-4,5-dihydro-1H-pyrazolo[4,3-c]pyridin-3-yl)amino]-N,N-dimethylbenzenesulfonamide]	1.08	12
CN(C)S(=O)(=O)c1ccc(Nc2nn(C3(CC#N)CCN(C(=O)c4cccc(Cl)c4)CC3)c3cc[nH]c(=O)c23)cc1 [Example 9-14, 4-[(1-{1-[(3-chlorophenyl)carbonyl]-4-(cyanomethyl)piperidin-4-yl}-4-oxo-4,5-dihydro-1H-pyrazolo[4,3-c]pyridin-3-yl)amino]-N,N-dimethylbenzenesulfonamide]	0.23	1.96
CN(C)S(=O)(=O)c1ccc(Nc2nn(C3(CC#N)CCN(C(=O)c4ccccc4Cl)CC3)c3cc[nH]c(=O)c23)cc1 [Example 9-15, 4-[(1-{1-[(2-chlorophenyl)carbonyl]-4-(cyanomethyl)piperidin-4-yl}-4-oxo-4,5-dihydro-1H-pyrazolo[4,3-c]pyridin-3-yl)amino]-N,N-dimethylbenzenesulfonamide]	0.81	8.38
CN(C)S(=O)(=O)c1ccc(Nc2nn(C3(CC#N)CCN(C(=O)CCc4ccccc4)CC3)c3cc[nH]c(=O)c23)cc1 [Example 9-17, 4-({1-[4-(cyanomethyl)-1-(3-phenylpropanoyl)piperidin-4-yl]-4-oxo-4,5-dihydro-1H-pyrazolo[4,3-c]pyridin-3-yl}amino)-N,N-dimethylbenzenesulfonamide]	0.15	0.7
CN(C)S(=O)(=O)c1ccc(Nc2nn(C3(CC#N)CCN(C(=O)CN4CCCC4=O)CC3)c3cc[nH]c(=O)c23)cc1 [Example 9-19, 4-[(1-{4-(cyanomethyl)-1-[(2-oxopyrrolidin-1-yl)acetyl]piperidin-4-yl}-4-oxo-4,5-dihydro-1H-pyrazolo[4,3-c]pyridin-3-yl)amino]-N,N-dimethylbenzenesulfonamide]	0.26	3.14
